According to patent publication US20100150948A1, “MATERIALS AND METHODS FOR IMPROVED IMMUNOGLYCOPROTEINS” (TRUBION PHARMACEUTICALS, INC., priority 2006, published 2010):
Several values for one entry are separate records, joined by “and”; a condition that tells them apart may be missing. Identical values can stand only once.

What was measured:
[1] = tested on: CD16; assay: Binding to soluble FcγR-MIg fusion on WIL2-S cells, flow cytometry (allele not stated)
Procedure: The immunoglycoproteins produced according to Example 2 were assayed in vitro for binding to soluble Ig-fusion versions of Fcγ receptors, in which the extracellular domain of a receptor is fused to murine IgG2a Fc.
The soluble Fey receptor materials were generated by fusing the extracellular domain of Fcγ Receptors I (Genbank Acc. No. BC032634), IIa (Genbank Acc. No. NM_021642), IIb (Genbank Acc. No. BC031992), and III-V158 (high affinity allele) (Genbank Acc. No. X07934) and III-F158 (low affinity allele), respectively, to a murine IgG2a Fc with a Pro to Ser mutation at residue 238 (MIgG2aP238S). For both forms of Fcγ RIII (CD16), an HE4 leader was cloned onto CD16 amino acids 1-178 and then fused to MIgG2aP238S.
The assays were carried out as follows. […] The cells were then incubated with the desired FcγR-MIg fusion in the same diluent at a concentration of 1 μg/ml on ice for 45 minutes.
The complexes (WIL2-S cells/SMIP/FcγR-MIg) were then incubated with PE conjugated AffiniPure F(Ab')2 Goat Anti-Mouse IgG [Jackson Immunoresearch] (a mouse Fc-specific antibody with minimal cross reactivity with human Fc) at a 1:100 dilution. The cells were analyzed by one-color flow cytometry on a FACsCalibur using CellQuest software (Becton Dickinson).
If TRU-016 supernatants from Example 2 were used in this assay instead of purified TRU-016 protein, the SMIP concentration in the supernatant was quantified by direct staining of WIL2-S cells with diluted supernatant along with a TRU-016 standard. TRU-016 was detected by staining with FITC conjugated F(Ab')2 Goat Anti-Human (gamma) [Caltag H10101] at a 1:50 dilution.

[2] = tested on: CHO cells transfected with TRU-016; assay: Effect of castanospermine concentration on cell viability, density and specific protein production of TRU-016; assay type: cell-based, Chinese hamster; conditions: for Viability at Harvest (%): harvest day 8, duplicate flasks, listed as CS
Procedure: Prior to initiation of the experiments, CHO cells transfected with TRU-016 were grown in shake flasks in Ex-Cell™ 302 CHO serum-free media (SAFC Biosciences) supplemented with 1× non-essential amino acids (MediaTech), 1× sodium pyruvate (MediaTech), 4 mM L-glutamine (MediaTech), 500 nM methotrexate (MP Biomedicals) and 1 mg/L recombinant insulin (Recombulin—GIBCO/Invitrogen Corp.) at 37° C. and 5% carbon dioxide in a humidified incubator. A 200 mM stock concentration of castanospermine (Alexis Biochemicals) was prepared by dilution of the castanospermine in sterile, distilled/deionized water (MediaTech) and filtration through a 13 mm Acrodisc® with a 0.2 μm HT Tuffryn membrane (Pall Corporation). Stock solution was aliquoted into sterile, O-ringed, 0.5 mL microcentrifuge tubes (Fisherbrand, Fisher Scientific) and frozen at −20° C. Approximately 1 hour prior to initiation of experiments, needed aliquots were thawed at room temperature and the contents of each vial mixed well by vortexing.
For each experiment, cells in log phase growth were seeded in the above medium into a total volume of 60 mL in 250 mL shaker flasks at a density of 200,000 cells/mL and CS added at the concentration to be tested. Final CS concentrations of 800 μM, 400 μM, 200 μM, 100 μM, 50 μM, 25 μM and 0 μM were each tested in duplicate flasks. All cultures were incubated at 37° C. and 5% carbon dioxide in a humidified incubator and monitored at least every other day for viable cell density and overall cell viability.
Cultures were harvested on day 8 when overall cell viability was 50-70% (Expt. 1) and 30-50% (Expt. 2). Cells and cellular debris were removed by centrifugation in a Sorvall Super T21 at 3000 rpm for 20 minutes after which the supernatant was sterile filtered through a Millipore Steriflip unit with a 0.22 μm Millipore Express Plus membrane and stored at 2-8° C. until purification.

[3] = tested on: CD37; assay: Binding of TRU-016 to CD37 expressing Daudi cells; set-up: species or system human; conditions: CS 25-800 μM in culture
Procedure: The cells are then incubated with a FITC-conjugated goat anti-human IgG Fc specific antibody (Caltag H 10501). This antibody will bind to the Fc region of the human IgG chain of TRU-016 bound to the cells. The antibody is diluted 1:50 in FACS buffer and 100 μL is added to each well. The plate is incubated at 4° C. in the dark for 45 minutes. Any unbound FITC-labeled antibody is removed by adding 100 μL of FACS buffer to each well, centrifuging at 250×g for 3 minutes at 15° C. followed by removal of supernatant. This is followed by a second wash with 200 μL/well FACS buffer. The cells are resuspended with 200 μL/well 2% paraformaldehyde and stored at 4° C. overnight. Each sample's bound fluorescence is measured on a BD FACSCalibur flow cytometry system and analyzed using Cell Quest Pro software (Becton Dickinson, ver 5.2). The GeoMean fluorescence intensity for each sample is plotted relative to the TRU-016 concentration. A dose response curve is generated and fit to a 4-parameter logistic (4-PL) curve using the SoftMax Pro software (Molecular Devices, ver 5.0.1). Titrations of TRU-016 are utilized to create a dose response curve of the untreated control and CS treated samples for comparison.

Row | Molecule | CD16 binding activity of sera containing TRU-016 ([1]; mouse sera at 48, 72, 96 and 192 hours after administration of carbohydrate-modified TRU-016) | reduction of TRU-016 protein production ([2]; 400 μm CS) | Viability at Harvest (%) ([2]; CS 25 μM) | Viability at Harvest (%) ([2]; CS 50 μM) | Viability at Harvest (%) ([2]; CS 100 μM) | Viability at Harvest (%) ([2]; CS 200 μM) | Viability at Harvest (%) ([2]; CS 400 μM) | Viability at Harvest (%) ([2]; CS 800 μM) | cell viability and growth as indicated by integral cell area (ICA) ([2]; CS 25-800 μM) | immunoglycoprotein production ([2]; increasing concentrations of castanospermine, 25-800 μM) | dose response binding curves of TRU-016 to CD37 expressing cells, compared with untreated TRU-016 sample [3] | CD16 binding (mean fluorescence intensity) of Protein A-purified TRU-016 ([1]; 0, 10, 25, 50, 100 or 200 μM castanospermine in culture media)
1 | TRU-016: recombinant single chain protein (SMIP) that binds CD37; G28-1 binding domain, modified hinge, human IgG1 CH2 and CH3; SEQ ID NO: 2 | retained its increased CD16 binding activity | – | – | – | – | – | – | – | – | – | – | –
2 | O[C@H]1[C@H](O)[C@@H](O)CN2CC[C@H](O)[C@H]12 [castanospermine] | – | approximately 40% | 53.9% and 54.5% | 49.4% and 50.0% | 54.4% and 54.6% | 55.5% and 51.1% | 65.7% and 68.2% | 70.6% and 65.2% | did not appear to be significantly affected | appeared to reduce | did not alter | dose-dependent increase
